Data: US11072634B2, “Inhibitors of transglutaminases” (Zedira GmbH, priority 2016, dated 2021)

Columns and labels:
[1] = tested on: Human hepatic stellate cell line LX-2; assay: Extracellular matrix protein deposition of LX-2 cells; format: cell-based; settings: LX-2, 100 μM and 200 μM, 12 days
Protocol: B) Extracellular matrix protein deposition of homogenates from LX-2-cells grown in standard plastic 6-well plates in the presence of 0-200 μM E22 measured by the DC-protein-assay (BioRad, #5000111).
Human hepatic stellate cell line LX-2 was cultured on standard plastic 6 well plates in Dulbecco's Modified Eagle's Medium containing 100 μg/mL streptomycin, 100 units/ml penicillin, 2 mM glutamine, and 10% (v/v) fetal calf serum. E22 was added to a concentration of 0 μM, 100 μM and 200 μM. Cells were grown at 37° C. and 5% CO2 humidified atmosphere. Medium was exchanged every two days.

TG2 = molecular target: T1, TG2 (Homo sapiens, UniProt P21980); assay: Transglutaminase activity of homogenates of LPS-stimulated BEAS-2B cells; format: cell-based; settings: 0-200 μM
T1 sequence (P21980 1-687): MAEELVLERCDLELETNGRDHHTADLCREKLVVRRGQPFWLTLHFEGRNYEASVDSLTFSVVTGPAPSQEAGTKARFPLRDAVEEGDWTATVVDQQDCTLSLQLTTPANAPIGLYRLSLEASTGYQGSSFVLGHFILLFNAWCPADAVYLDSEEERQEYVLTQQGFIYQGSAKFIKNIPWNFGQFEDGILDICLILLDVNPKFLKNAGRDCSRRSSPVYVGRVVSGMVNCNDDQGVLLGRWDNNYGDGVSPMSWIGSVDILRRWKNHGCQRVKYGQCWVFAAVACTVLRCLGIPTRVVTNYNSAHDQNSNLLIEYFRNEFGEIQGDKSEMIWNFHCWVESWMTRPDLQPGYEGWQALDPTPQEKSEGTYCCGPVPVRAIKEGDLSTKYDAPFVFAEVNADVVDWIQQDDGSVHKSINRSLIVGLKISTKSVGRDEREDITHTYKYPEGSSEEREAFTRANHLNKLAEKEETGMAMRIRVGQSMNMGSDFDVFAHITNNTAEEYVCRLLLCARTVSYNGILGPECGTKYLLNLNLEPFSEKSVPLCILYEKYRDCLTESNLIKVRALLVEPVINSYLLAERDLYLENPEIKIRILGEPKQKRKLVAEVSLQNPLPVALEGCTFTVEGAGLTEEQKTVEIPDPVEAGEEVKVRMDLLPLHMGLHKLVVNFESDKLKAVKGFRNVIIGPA
Protocol: A) Transglutaminase activity of homogenates from BEAS-2B-cell grown in the presence of 0-200 μM E22 and stimulated with LPS determined by TG2-selective Tissue Transglutaminase Pico-Assay Kit (#M003, Zedira, Darmstadt, Germany) according to the manufacturer's instructions.
Extracellular matrix deposition is a hallmark in pulmonary fibrosis. The BEAS-2B cell line is derived from normal human bronchial epithelium.
BEAS-2B cells were grown at 37° C. and 5% CO2 in 25 mM HEPES-buffered M199-medium (Merck, Darmstadt) containing 10% FBS, […], 2 mM glutamine, 100 U/ml penicillin (supplemented with […] apotransferrin, 20 ng/ml human epidermal growth factor (EGF), […] insulin, and 0.361 mg/ml hydrocortisone). For the induction of airway fibrosis by epithelial-to-mesenchymal transition (EMT), cells were seeded at 80% confluence on six-well plates. After one day cultivation 4 μg/mL LPS as well as 0 μM, 100 μM or 200 μM E22 were added and then incubated for further 72 h.

CCCCCNC(=O)C(=O)CC[C@H](NC(=O)[C@@H]1CCCN1C(C)=O)C(=O)Nc1cccn(CC(=O)NCC(CC)CC)c1=O [Compound E22, (S)-2-((S)-1-acetylpyrrolidine-2-carboxamido)-N1-(1-(2-(2-ethylbutylamino)-2-oxoethyl)-2-oxo-1,2-dihydropyridin-3-yl)-5-oxo-N6-pentylhexanediamide]
extracellular matrix deposition, of control [1]: about 30% | Transglutaminase activity (TG2): dose dependent reduction
